Data taken from patent US11395847B2, “Acylated GLP-1/GLP-2 dual agonists” (Zealand Pharma A/S, priority 2016, dated 2022).
Read-outs that look alike come from different tables or passages of the source. Where a SMILES comes first, the peptide text is derived from it.

Tests used:
[1] = Chemical stability (RP-HPLC normalized purity after incubation at 40° C.); assay type: physicochemical; details: 14-day incubation, 0.2 mg/ml, normalized purity (area-%); for pH 7 normalized stability: pH 7, 40° C.
Description: Samples of each test peptide were dissolved in MILLIQ™ water, and the pH of the solution was adjusted to pH 6, 7, 7.5 or 9 using either HCl or NaOH. The final peptide concentration was 0.2 mg/ml. Samples were placed in glass vials and incubated at 40° C. The samples were analyzed by RP-HPLC on a C18 column with gradient elution using an acetonitrile/TFA/water eluent system. The area-percentage (area-%) of the main peak after incubation time T=t (relative to time T=0) was determined by UV spectroscopy at 220 nm.
The purity was first determined as follows: Purity(area-%)=(area of main peak/total area of all peaks)×100.
The purity was then normalized between time points by setting purity at time 0 (T=0) to 100 for each pH value for a given peptide, as follows: Normalized area-% at time t(T=t)=[area-%(T=t)/area-%(T=0)]×100.
The chemical stability assessment results after 14-day incubation (in the form of normalized purity values) are summarized in Table 4.

[2] = Solubility assessment (turbidity absorbance at 325 nm); assay type: physicochemical
Description: A stock solution of the test peptide (2 mg/ml; determined from the weighed amount of peptide) in demineralized water adjusted to pH 2.5 with HCl was prepared, and aliquots were diluted 1:1 in 100 mM acetate buffer (pH 4.0 and pH 5.0), 100 mM histidine buffer (pH 6.0 and pH 7.0) and 100 mM phosphate buffer (pH 6.0, pH 7.0 and pH 7.5), respectively, and loaded in a standard flat-bottom, non-sterile 96-well UV Microplate. The absorbance of samples (single samples, n=1) at 280 and 325 nm was measured in an absorbance-based plate reader, which was preheated to ambient temperature (typically 25° C.).

[3] = 100 mM acetate buffer pH 4.0, ambient temperature, read-out: Solubility Acetate buffer pH 4
[4] = 100 mM acetate buffer pH 5.0, ambient temperature, read-out: Solubility Acetate buffer pH 5
[5] = 100 mM histidine buffer pH 6.0, ambient temperature, read-out: Solubility Histidine buffer pH 6
[6] = 100 mM histidine buffer pH 7.0, ambient temperature, read-out: Solubility Histidine buffer pH 7
[7] = 100 mM phosphate buffer pH 6.0, ambient temperature, read-out: Solubility Phosphate buffer pH 6
[8] = 100 mM phosphate buffer pH 7.0, ambient temperature, read-out: Solubility Phosphate buffer pH 7
[9] = 100 mM phosphate buffer pH 7.5, ambient temperature, read-out: Solubility Phosphate buffer pH 7.5

In the case of `CC[C@H](C)[C@H](NC(=O)[C@H](Cc1ccccc1)NC(=O)[C@H](CC(=O)O)NC(=O)[C@H](CCCNC(=N)N)NC(=O)[C@H](C)NC(=O)[C@H](C)NC(=O)[C@H](CCC(N)=O)NC(=O)[C@H](CCCCNC(=O)CC[C@H](NC(=O)CCCCCCCCCCCCCCCCC(=O)O)C(=O)O)NC(=O)[C@H](CC(=O)O)NC(=O)[C@H](CC(C)C)NC(=O)[C@@H](NC(=O)[C@@H](NC(=O)[C@H](C)NC(=O)[C@H](CC(C)C)NC(=O)[C@H](CCC(=O)O)NC(=O)[C@H](CO)NC(=O)[C@@H](NC(=O)[C@H](Cc1ccccc1)NC(=O)[C@@H](NC(=O)CNC(=O)[C@H](CCC(=O)O)NC(=O)C(C)(C)NC(=O)[C@@H](N)Cc1c[nH]cn1)[C@@H](C)O)[C@@H](C)O)[C@@H](C)O)[C@@H](C)CC)C(=O)N[C@@H](C)C(=O)N[C@@H](Cc1c[nH]c2ccccc12)C(=O)N[C@@H](CC(C)C)C(=O)N[C@H](C(=O)N[C@@H](CCC(N)=O)C(=O)N[C@@H](Cc1c[nH]cn1)C(=O)N[C@@H](CCCCN)C(=O)N[C@H](C(=O)N[C@H](C(=O)N[C@@H](CC(=O)O)C(=O)O)[C@@H](C)O)[C@@H](C)CC)[C@@H](C)CC` [Compound 19] (HELM PEPTIDE1{H.[Aib].E.G.T.F.T.S.E.L.A.T.I.L.D.K.Q.A.A.R.D.F.I.A.W.L.I.Q.H.K.I.T.D}|PEPTIDE2{[O=C(O)CCCCCCCCCCCCCCCCC(=O)[*:2]].[gGlu]}$PEPTIDE1,PEPTIDE2,16:R3-2:R2$$$V2.0), the “pH 6 normalized stability” value ([1]; pH 6, 40° C.) is reported as “A (>90% normalised stability)”, the “pH 7 normalized stability” value [1] is reported as “A (>90% normalised stability)” and the solubility [2, 3] is reported as < 1 mg/mL. The solubility [2, 4] was < 1 mg/mL, the solubility [2, 5] was ≥ 1 mg/mL and the solubility [2, 6] was ≥ 1 mg/mL. For the same compound, the solubility [2, 7] was ≥ 1 mg/mL, the solubility [2, 8] was ≥ 1 mg/mL and the solubility [2, 9] was ≥ 1 mg/mL.
In the case of `CC[C@H](C)[C@H](NC(=O)[C@H](Cc1ccccc1)NC(=O)[C@H](CC(=O)O)NC(=O)[C@H](CCCNC(=N)N)NC(=O)[C@H](C)NC(=O)[C@H](C)NC(=O)[C@H](CCC(N)=O)NC(=O)[C@H](CCCCNC(=O)CC[C@H](NC(=O)CCCCCCCCCCCCCCCCC(=O)O)C(=O)O)NC(=O)[C@H](CC(=O)O)NC(=O)[C@H](CC(C)C)NC(=O)[C@@H](NC(=O)[C@@H](NC(=O)[C@H](C)NC(=O)[C@H](CC(C)C)NC(=O)[C@H](CCC(=O)O)NC(=O)[C@H](CO)NC(=O)[C@@H](NC(=O)[C@H](Cc1ccccc1)NC(=O)[C@H](CO)NC(=O)CNC(=O)[C@H](CCC(=O)O)NC(=O)C(C)(C)NC(=O)[C@@H](N)Cc1c[nH]cn1)[C@@H](C)O)[C@@H](C)O)[C@@H](C)CC)C(=O)N[C@@H](C)C(=O)N[C@@H](Cc1c[nH]c2ccccc12)C(=O)N[C@@H](CC(C)C)C(=O)N[C@H](C(=O)N[C@@H](Cc1c[nH]cn1)C(=O)N[C@@H](Cc1c[nH]cn1)C(=O)N[C@@H](CCCCN)C(=O)N[C@H](C(=O)N[C@H](C(=O)N[C@@H](CC(=O)O)C(=O)O)[C@@H](C)O)[C@@H](C)CC)[C@@H](C)CC` [Compound 26] (HELM PEPTIDE1{H.[Aib].E.G.S.F.T.S.E.L.A.T.I.L.D.K.Q.A.A.R.D.F.I.A.W.L.I.H.H.K.I.T.D}|PEPTIDE2{[O=C(O)CCCCCCCCCCCCCCCCC(=O)[*:2]].[gGlu]}$PEPTIDE1,PEPTIDE2,16:R3-2:R2$$$V2.0), the “pH 7 normalized stability” value [1] is reported as “A (>90% normalised stability)”, the solubility [2, 3] is reported as ≥ 1 mg/mL and the solubility [2, 4] is reported as < 1 mg/mL. For the same compound, the solubility [2, 5] was < 1 mg/mL, the solubility [2, 6] was ≥ 1 mg/mL and the solubility [2, 7] was < 1 mg/mL. The solubility [2, 8] was ≥ 1 mg/mL and the solubility [2, 9] was ≥ 1 mg/mL.
In the case of `CC[C@H](C)[C@H](NC(=O)[C@H](Cc1ccccc1)NC(=O)[C@H](CC(=O)O)NC(=O)[C@H](CCCNC(=N)N)NC(=O)[C@H](C)NC(=O)[C@H](C)NC(=O)[C@H](CCC(N)=O)NC(=O)[C@H](CCCCNC(=O)COCCOCCNC(=O)CC[C@H](NC(=O)CCCCCCCCCCCCCCCCC(=O)O)C(=O)O)NC(=O)[C@H](CC(=O)O)NC(=O)[C@H](CC(C)C)NC(=O)[C@@H](NC(=O)[C@@H](NC(=O)[C@H](C)NC(=O)[C@H](CC(C)C)NC(=O)[C@H](CCC(=O)O)NC(=O)[C@H](CO)NC(=O)[C@@H](NC(=O)[C@H](Cc1ccccc1)NC(=O)[C@H](CO)NC(=O)CNC(=O)[C@H](CCC(=O)O)NC(=O)C(C)(C)NC(=O)[C@@H](N)Cc1c[nH]cn1)[C@@H](C)O)[C@@H](C)O)[C@@H](C)CC)C(=O)N[C@@H](C)C(=O)N[C@@H](Cc1c[nH]c2ccccc12)C(=O)N[C@@H](CC(C)C)C(=O)N[C@@H](Cc1ccc(O)cc1)C(=O)N[C@@H](CCC(N)=O)C(=O)N[C@@H](Cc1c[nH]cn1)C(=O)N[C@@H](CCCCN)C(=O)N[C@H](C(=O)N[C@H](C(=O)N[C@@H](CC(=O)O)C(=O)O)[C@@H](C)O)[C@@H](C)CC` [Compound 33] (HELM PEPTIDE1{H.[Aib].E.G.S.F.T.S.E.L.A.T.I.L.D.K.Q.A.A.R.D.F.I.A.W.L.Y.Q.H.K.I.T.D}|PEPTIDE2{[O=C(O)CCCCCCCCCCCCCCCCC(=O)[*:2]].[gGlu].[O=C(COCCOCCN[*:1])[*:2]]}$PEPTIDE1,PEPTIDE2,16:R3-3:R2$$$V2.0), the “pH 7 normalized stability” value [1] is reported as “A (>90% normalised stability)”.
For `CCCCCCCCCCCCCCCC(=O)NCCC(=O)NCCCC[C@H](NC(=O)[C@H](CC(=O)O)NC(=O)[C@H](CC(C)C)NC(=O)[C@@H](NC(=O)[C@@H](NC(=O)[C@H](C)NC(=O)[C@H](CC(C)C)NC(=O)[C@H](CCC(=O)O)NC(=O)[C@H](CO)NC(=O)[C@@H](NC(=O)[C@H](Cc1ccccc1)NC(=O)[C@H](CO)NC(=O)CNC(=O)[C@H](CCC(=O)O)NC(=O)C(C)(C)NC(=O)[C@@H](N)Cc1c[nH]cn1)[C@@H](C)O)[C@@H](C)O)[C@@H](C)CC)C(=O)N[C@@H](CCC(N)=O)C(=O)N[C@@H](C)C(=O)N[C@@H](C)C(=O)N[C@@H](CCCNC(=N)N)C(=O)N[C@@H](CC(=O)O)C(=O)N[C@@H](Cc1ccccc1)C(=O)N[C@H](C(=O)N[C@@H](C)C(=O)N[C@@H](Cc1c[nH]c2ccccc12)C(=O)N[C@@H](CC(C)C)C(=O)N[C@@H](CCC(N)=O)C(=O)N[C@@H](CCC(N)=O)C(=O)N[C@@H](Cc1c[nH]cn1)C(=O)N[C@@H](CCCCN)C(=O)N[C@H](C(=O)N[C@H](C(=O)N[C@@H](CC(=O)O)C(=O)O)[C@@H](C)O)[C@@H](C)CC)[C@@H](C)CC` [Compound 32] (HELM PEPTIDE1{H.[Aib].E.G.S.F.T.S.E.L.A.T.I.L.D.K.Q.A.A.R.D.F.I.A.W.L.Q.Q.H.K.I.T.D}|PEPTIDE2{[CCCCCCCCCCCCCCCC(=O)[*:2]].[bAla]}$PEPTIDE1,PEPTIDE2,16:R3-2:R2$$$V2.0), the “pH 7 normalized stability” value [1] was “A (>90% normalised stability)”.
In the case of `CC[C@H](C)[C@H](NC(=O)[C@H](Cc1ccccc1)NC(=O)[C@H](CC(=O)O)NC(=O)[C@H](CCCNC(=N)N)NC(=O)[C@H](C)NC(=O)[C@H](C)NC(=O)[C@H](CCC(N)=O)NC(=O)[C@H](CCCCNC(=O)CC[C@H](NC(=O)CCCCCCCCCCCCCCCCC(=O)O)C(=O)O)NC(=O)[C@H](CC(=O)O)NC(=O)[C@H](CC(C)C)NC(=O)[C@@H](NC(=O)[C@@H](NC(=O)[C@H](C)NC(=O)[C@H](CC(C)C)NC(=O)[C@H](CCC(=O)O)NC(=O)[C@H](CO)NC(=O)[C@@H](NC(=O)[C@H](Cc1ccccc1)NC(=O)[C@H](CO)NC(=O)CNC(=O)[C@H](CCC(=O)O)NC(=O)C(C)(C)NC(=O)[C@@H](N)Cc1c[nH]cn1)[C@@H](C)O)[C@@H](C)O)[C@@H](C)CC)C(=O)N[C@@H](C)C(=O)N[C@@H](Cc1c[nH]c2ccccc12)C(=O)N[C@@H](CC(C)C)C(=O)N[C@H](C(=O)N[C@@H](CC(C)C)C(=O)N[C@@H](Cc1c[nH]cn1)C(=O)N[C@@H](CCCCN)C(=O)N[C@H](C(=O)N[C@H](C(=O)N[C@@H](CC(=O)O)C(=O)O)[C@@H](C)O)[C@@H](C)CC)[C@@H](C)CC` [Compound 28] (HELM PEPTIDE1{H.[Aib].E.G.S.F.T.S.E.L.A.T.I.L.D.K.Q.A.A.R.D.F.I.A.W.L.I.L.H.K.I.T.D}|PEPTIDE2{[O=C(O)CCCCCCCCCCCCCCCCC(=O)[*:2]].[gGlu]}$PEPTIDE1,PEPTIDE2,16:R3-2:R2$$$V2.0), the “pH 7 normalized stability” value [1] is reported as “A (>90% normalised stability)”, the solubility [2, 3] is reported as < 1 mg/mL and the solubility [2, 4] is reported as < 1 mg/mL. For the same compound, the solubility [2, 5] was ≥ 1 mg/mL, the solubility [2, 6] was ≥ 1 mg/mL and the solubility [2, 7] was ≥ 1 mg/mL. The solubility [2, 8] was ≥ 1 mg/mL and the solubility [2, 9] was ≥ 1 mg/mL.
